The results in this text go back to publication PMC9522516, “A Simple and Portable Personal Glucose Meter Method Combined with Molecular Docking for Screening of Lipase Inhibitors” (Evidence-based Complementary and Alternative Medicine : eCAM, 2022).

This experiment has as its target T1, Lipase (Diutina rugosa, UniProt P20261).
T1 construct: gene LIP1
Nature of the experiment: lipase activity assay, personal glucose meter readout, % inhibition at […]. The format is biochemical.

T1 sequence (P20261 16-549): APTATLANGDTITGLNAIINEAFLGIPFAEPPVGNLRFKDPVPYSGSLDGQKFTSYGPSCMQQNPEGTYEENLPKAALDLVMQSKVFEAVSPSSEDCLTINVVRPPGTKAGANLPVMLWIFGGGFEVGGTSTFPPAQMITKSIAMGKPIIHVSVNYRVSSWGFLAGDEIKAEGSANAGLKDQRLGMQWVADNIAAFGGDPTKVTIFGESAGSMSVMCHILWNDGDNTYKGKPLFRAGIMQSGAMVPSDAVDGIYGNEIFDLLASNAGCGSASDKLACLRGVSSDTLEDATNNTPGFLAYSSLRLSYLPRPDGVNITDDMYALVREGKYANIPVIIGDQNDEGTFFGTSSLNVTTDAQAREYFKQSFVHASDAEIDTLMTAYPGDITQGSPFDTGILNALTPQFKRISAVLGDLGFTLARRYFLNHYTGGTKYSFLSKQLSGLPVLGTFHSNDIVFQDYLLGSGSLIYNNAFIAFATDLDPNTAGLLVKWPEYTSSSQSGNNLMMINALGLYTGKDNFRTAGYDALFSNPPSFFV

In the case of `O=C(/C=C/c1ccc(O)c(O)c1)O[C@H](Cc1ccc(O)c(O)c1)C(=O)O` [Rosmarinic acid], 2000 µM produced 39.3 ± 3% inhibition.

Turning to `O=C(O[C@@H]1Cc2c(O)cc(O)cc2O[C@@H]1c1ccc(O)c(O)c1)c1cc(O)c(O)c(O)c1` [(−)-Epicatechin gallate], the inhibition – broadly, the change of the read-out against control, counted positive when it falls – at 2000 µM came to 46.5 ± 2.2%.

The compound `Oc1cc(O)c2c(c1)O[C@H](c1ccc(O)c(O)c1)[C@H](O)C2` [Epicatechin] yielded an inhibition at 2000 µM of 42.8 ± 1.8%.

Consider `Oc1cc(O)c2c(c1)O[C@H](c1cc(O)c(O)c(O)c1)[C@H](O)C2` [(−)-Epigallocatechin], for which the inhibition at 2000 µM is 47.2 ± 1.6%.
